Test results: ChEMBL document CHEMBL1201862, “PubChem BioAssay data set” (2004)
Values joined by “and” are separate entries in the source; they are usually repeats but may differ in a detail not shown here. Equal values may be shown once.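 Test compounds were applied to cells in 96-well plates for 48 hours at 5 doses. At the GI50, growth is halved.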 Active and inactive are the calls of the source. Rule as the data show it: active = GI50 up to about 1.1 µM and inactive = higher.

Experiments:
Assay in all cases: NCI tumour cell line growth inhibition, 48 h
SW-620 = tested on: SW-620
UO-31 = tested on: UO-31
OVCAR-5 = tested on: OVCAR-5
SF-295 = tested on: SF-295
SNB-19 = tested on: SNB-19
SR = tested on: SR
SK-MEL-28 = tested on: SK-MEL-28
HOP-62 = tested on: HOP-62
SN12C = tested on: SN12C
HCT-15 = tested on: HCT-15
MDA-MB-231 = tested on: MDA-MB-231
HOP-92 = tested on: HOP-92
DU-145 = tested on: DU-145
NCI-H460 = tested on: NCI-H460
PC-3 = tested on: PC-3
SNB-75 = tested on: SNB-75
T47D = tested on: T47D
BT-549 = tested on: BT-549
NCI-H23 = tested on: NCI-H23
HCC 2998 = tested on: HCC 2998
A498 = tested on: A498
KM12 = tested on: KM12
SK-MEL-5 = tested on: SK-MEL-5
MOLT-4 = tested on: MOLT-4
SF-268 = tested on: SF-268
SK-MEL-2 = tested on: SK-MEL-2
COLO 205 = tested on: COLO 205
TK-10 = tested on: TK-10
Hs-578T = tested on: Hs-578T
K562 = tested on: K562
MDA-MB-435 = tested on: MDA-MB-435
U-251 = tested on: U-251
HT-29 = tested on: HT-29
OVCAR-3 = tested on: OVCAR-3
MCF7 = tested on: MCF7
786-0 = tested on: 786-0
CAKI-1 = tested on: CAKI-1
ACHN = tested on: ACHN
OVCAR-8 = tested on: OVCAR-8
MDA-N = tested on: MDA-N
SK-OV-3 = tested on: SK-OV-3
NCI/ADR-RES = tested on: NCI/ADR-RES
HCT-116 = tested on: HCT-116
A549 = tested on: A549
OVCAR-4 = tested on: OVCAR-4
CCRF-CEM = tested on: CCRF-CEM
LOX IMVI = tested on: LOX IMVI
UACC-257 = tested on: UACC-257
EKVX = tested on: EKVX
UACC-62 = tested on: UACC-62
HL-60 = tested on: HL-60
RPMI-8226 = tested on: RPMI-8226
M14 = tested on: M14
NCI-H522 = tested on: NCI-H522
IGROV-1 = tested on: IGROV-1
SF-539 = tested on: SF-539

Q: How did the GI50 (SW-620) turn out when `COc1ccccc1/N=N/c1c(O)ccc2ccccc12` was run?
A: The GI50 was 56.8 µM (inactive) and 66.7 µM (inactive).

Q: And the GI50 (UO-31)?
A: The GI50 was 17.9 µM (inactive) and > 10 µM (inactive).

Q: And the GI50 (OVCAR-5)?
A: Its GI50 is 40.1 µM (inactive) and 38.9 µM (inactive).

Q: And the GI50 (SF-295)?
A: Its GI50 is 20 µM (inactive) and 28.5 µM (inactive).

Q: What about the GI50 (SNB-19) of the same molecule?
A: The GI50 was 27.6 µM (inactive) and 26.9 µM (inactive).

Q: And the GI50 (SR)?
A: Its GI50 is 24.3 µM (inactive).

Q: What about the GI50 (SK-MEL-28) of the same molecule?
A: The GI50 was 85.3 µM (inactive).

Q: And the GI50 (HOP-62)?
A: The GI50 was 15.8 µM (inactive) and 14.5 µM (inactive).

Q: And the GI50 (SN12C)?
A: Its GI50 is 71.4 µM (inactive) and 60.8 µM (inactive).

Q: What about the GI50 (HCT-15) of the same molecule?
A: Its GI50 is > 63.2 µM.

Q: And the GI50 (MDA-MB-231)?
A: Its GI50 is 30.2 µM (inactive) and 28.5 µM (inactive).

Q: What about the GI50 (HOP-92) of the same molecule?
A: Its GI50 is 22.8 µM (inactive) and 14.6 µM (inactive).

Q: And the GI50 (DU-145)?
A: The GI50 was 54.2 µM (inactive) and 98.9 µM (inactive).

Q: What about the GI50 (NCI-H460) of the same molecule?
A: Its GI50 is 18.9 µM (inactive).

Q: And the GI50 (PC-3)?
A: Its GI50 is 35.6 µM (inactive) and 38.1 µM (inactive).

Q: And the GI50 (SNB-75)?
A: Its GI50 is 18.7 µM (inactive) and 19.6 µM (inactive).

Q: What about the GI50 (T47D) of the same molecule?
A: Its GI50 is 23.3 µM (inactive) and 38.2 µM (inactive).

Q: And the GI50 (BT-549)?
A: The GI50 was 84.3 µM (inactive).

Q: And the GI50 (NCI-H23)?
A: Its GI50 is 21.7 µM (inactive) and 31.4 µM (inactive).

Q: And the GI50 (HCC 2998)?
A: The GI50 was 21.3 µM (inactive).

Q: And the GI50 (A498)?
A: The GI50 was 32.1 µM (inactive) and 23.5 µM (inactive).

Q: And the GI50 (KM12)?
A: Its GI50 is 51.6 µM (inactive) and > 45.5 µM (inactive).

Q: What about the GI50 (SK-MEL-5) of the same molecule?
A: The GI50 was 22.8 µM (inactive) and 20.7 µM (inactive).

Q: What about the GI50 (MOLT-4) of the same molecule?
A: Its GI50 is 64.3 µM (inactive).

Q: And the GI50 (SF-268)?
A: Its GI50 is 29.9 µM (inactive) and 33.4 µM (inactive).

Q: What about the GI50 (SK-MEL-2) of the same molecule?
A: The GI50 was > 63.4 µM (inactive) and 65 µM (inactive).

Q: What about the GI50 (COLO 205) of the same molecule?
A: Its GI50 is 56.8 µM (inactive) and 64.7 µM (inactive).

Q: What about the GI50 (TK-10) of the same molecule?
A: Its GI50 is 14.6 µM (inactive) and 23.4 µM (inactive).

Q: What about the GI50 (Hs-578T) of the same molecule?
A: The GI50 was 28.7 µM (inactive) and 26.6 µM (inactive).

Q: What about the GI50 (K562) of the same molecule?
A: Its GI50 is > 100 µM (inactive) and 82.8 µM (inactive).

Q: What about the GI50 (MDA-MB-435) of the same molecule?
A: Its GI50 is 74 µM (inactive) and 78.2 µM (inactive).

Q: What about the GI50 (U-251) of the same molecule?
A: Its GI50 is 14.2 µM (inactive) and 18.9 µM (inactive).

Q: What about the GI50 (HT-29) of the same molecule?
A: The GI50 was 34.6 µM (inactive) and 30.7 µM (inactive).

Q: And the GI50 (OVCAR-3)?
A: The GI50 was 31.4 µM (inactive) and 32.1 µM (inactive).

Q: What about the GI50 (MCF7) of the same molecule?
A: The GI50 was 52.8 µM (inactive).

Q: What about the GI50 (786-0) of the same molecule?
A: Its GI50 is 13.8 µM (inactive) and 19.3 µM (inactive).

Q: What about the GI50 (CAKI-1) of the same molecule?
A: Its GI50 is 18.7 µM (inactive) and 25.6 µM (inactive).

Q: And the GI50 (ACHN)?
A: The GI50 was 13.6 µM (inactive).

Q: And the GI50 (OVCAR-8)?
A: Its GI50 is 25.8 µM (inactive) and 30.3 µM (inactive).

Q: And the GI50 (MDA-N)?
A: Its GI50 is 45.7 µM (inactive) and > 80.4 µM (inactive).

Q: And the GI50 (SK-OV-3)?
A: Its GI50 is 13.6 µM (inactive) and 18.3 µM (inactive).

Q: What about the GI50 (NCI/ADR-RES) of the same molecule?
A: Its GI50 is 42.1 µM (inactive) and 35 µM (inactive).

Q: What about the GI50 (HCT-116) of the same molecule?
A: Its GI50 is 33.4 µM (inactive) and 29 µM (inactive).

Q: And the GI50 (A549)?
A: Its GI50 is 32.7 µM (inactive) and 23 µM (inactive).

Q: Which results are given for `Nc1ccn(C2CC(O)C(COP(=O)(S)OC3CC(n4ccc(N)nc4=O)OC3CO)O2)c(=O)n1` (configuration not stated)?
A: GI50 (SW-620): > 100 µM (inactive); GI50 (UO-31): > 100 µM (inactive); GI50 (OVCAR-5): > 100 µM (inactive); GI50 (SF-295): > 100 µM (inactive); GI50 (SNB-19): > 100 µM (inactive); GI50 (SR): > 100 µM (inactive); GI50 (OVCAR-4): > 100 µM (inactive); GI50 (SK-MEL-28): > 100 µM (inactive); GI50 (HOP-62): > 100 µM (inactive); GI50 (CCRF-CEM): > 100 µM (inactive); GI50 (SN12C): 52.4 µM (inactive); GI50 (HCT-15): > 100 µM; GI50 (LOX IMVI): > 100 µM (inactive); GI50 (UACC-257): > 100 µM (inactive); GI50 (EKVX): > 100 µM (inactive); GI50 (MDA-MB-231): > 100 µM (inactive); GI50 (HOP-92): > 100 µM (inactive); GI50 (UACC-62): > 100 µM (inactive); GI50 (DU-145): > 100 µM (inactive); GI50 (NCI-H460): > 100 µM (inactive); GI50 (PC-3): > 100 µM (inactive); GI50 (SNB-75): 36.5 µM (inactive); GI50 (T47D): > 100 µM (inactive); GI50 (HL-60): > 100 µM (inactive); GI50 (BT-549): > 100 µM (inactive); GI50 (NCI-H23): > 100 µM (inactive); GI50 (HCC 2998): > 100 µM (inactive); GI50 (KM12): > 100 µM (inactive); GI50 (SK-MEL-5): > 100 µM (inactive); GI50 (MOLT-4): > 100 µM (inactive); GI50 (SF-268): > 100 µM (inactive); GI50 (SK-MEL-2): > 100 µM (inactive); GI50 (RPMI-8226): > 100 µM (inactive); GI50 (COLO 205): 13.8 µM (inactive); GI50 (TK-10): > 100 µM (inactive); GI50 (Hs-578T): > 100 µM (inactive); GI50 (MDA-MB-435): > 100 µM (inactive); GI50 (M14): > 100 µM (inactive); GI50 (U-251): > 100 µM (inactive); GI50 (HT-29): > 100 µM (inactive); GI50 (NCI-H522): > 100 µM (inactive); GI50 (OVCAR-3): > 100 µM (inactive); GI50 (MCF7): > 100 µM (inactive); GI50 (786-0): > 100 µM (inactive); GI50 (CAKI-1): > 100 µM (inactive); GI50 (ACHN): > 100 µM (inactive); GI50 (OVCAR-8): > 100 µM (inactive); GI50 (MDA-N): 4.93 µM (inactive); GI50 (IGROV-1): > 100 µM (inactive); GI50 (NCI/ADR-RES): > 100 µM (inactive); GI50 (HCT-116): > 100 µM (inactive); GI50 (SF-539): > 100 µM (inactive); GI50 (A549): > 100 µM (inactive)
